From patent US8816065B2, “Pharmaceutical or cosmetic composition containing nicotinic acid adenine dinucleotide phosphate or derivative thereof” (Damy Chemical Co., Ltd., priority 2010, dated 2014)

How the values were obtained:
[1] = tested on: keratin 1 and keratin 10 in outer skin of hairless mice; assay: Induction of keratinocyte differentiation in hairless mouse skin after topical application (keratin 1/keratin 10 immunostaining); type: in vivo
Method: Hairless mice (SPF/VAF Crl:SKH 1-hr) used in the present tests were purchased from OrientBio (Seongnam, Korea). NAADP, an experiment material of the present invention, used was a product of Sigma-Aldrich Corporation.
Test materials were prepared by dissolving NAADP for each concentration in a solution, in which 1% dimethyl sulfoxide (DMSO) was added to a phosphate buffer solution, and tests were performed by using a method of applying the test materials on right and left portions of the back of a 6-week-old mouse with cotton swabs. The test materials were applied 5 times for each concentration and the applications were performed twice a day at 9:00 a.m. and 7:00 p.m. Animals having the test materials applied for one week were sacrificed by cervical dislocation, and the skin was dissected to prepare a size of 1 cm×1 cm and was then fixed in a 10% formalin solution over a night. A paraffin block was prepared from the fixed tissues to prepare 5 micrometer slices and the slices were dyed with an antibody (Santa Cruz #SC53251) simultaneously identifying keratin 1 and keratin 10 at a dilution ratio of 1:100. Anti-mouse IgG (invitrogen) combined with Alexa 488 was used as a secondary antibody.
A solution, in which 1% DMSO was added to a phosphate buffer solution, was used as a control group and solutions prepared by diluting the solution used as the control group with NAADP in various concentrations were used as a test group.

[2] = tested on: Epidermal keratinocyte neonatal (NHEK-Np); assay: Increase in intracellular calcium in cultured keratinocytes (fluo-3 AM, confocal microscopy); type: cell-based, human
Method: In the present example, an efficacy in inducing an increase in intracellular calcium was evaluated when cultured keratinocytes were treated with NAADP in order to confirm an effect of recovering a skin barrier in the composition of the present invention.
Epidermal keratinocyte neonatal (NHEK-Np, CC-2507, Lonza Co. Ltd.) was treated with fluo-3 AM (Molecular Probe, USA), an intracellular calcium marker, for 30 minutes in a CO2 incubator and then washed with a KBM (Keratinocyte Basal Media, KBM-2, Lonza Co. Ltd.) medium three times. Measurement of intracellular calcium was performed in the KBM medium and an increase in intracellular calcium due to NAADP was observed. For the measurement of intracellular calcium, a concentration of calcium was calculated through the collection of images at 530 nm by using a confocal microscopy (Nikon, Japan) equipped with a laser source having an excitation wavelength of 488 nm and an emission wavelength of 530 nm Amounts of changes in calcium measured when epidermal keratinocyte neonatal (5×10^5 cells) was treated with 0.1 nM, 1 nM, 10 nM, 100 nM, 1000 nM of NAADP are illustrated in FIG. 1, respectively.

[3] = tested on: involucrin, keratin 1, and keratin 10 in primarily cultured epidermal keratinocyte neonatal; assay: Expression of keratinocyte differentiation markers by western blotting; type: cell-based, human
Method: An effect of NAADP on promoting cell differentiation was tested by measuring the expression of differentiation markers (involucrin, keratin 1, and keratin 10) generated during the differentiation of the keratinocytes by using a western blotting method.
Primarily cultured epidermal keratinocyte neonatal was put into a culture flask and attached to the bottom thereof, and then cultured for 5 days until the cells grew to cover about 70% to 80% of an area of the bottom by adding NAADP diluted for each concentration and retinol acid as a control group into a culture medium. The cells were harvested and cleaned with phosphate buffered saline (PBS). Next, precipitates obtained by adding 1 ml of a 10 mM tris-HCl (pH 7.4) buffer solution containing 2% sodium dodecyl sulfate (SDS) and 20 mM dithiothreitol (DTT) and being subjected to sonication, boiling, and centrifugation were again suspended in 1 ml of PBS. A content of protein in the suspension was measured and used as a criterion during the evaluation of a degree of cell differentiation. The results of tests performed by using a group treating the epidermal keratinocyte neonatal (5×10^5 cells) with retinol acid (1 μM) as a positive control group and adding each NAADP having different concentration (10 pM to 10 μM) to a low calcium concentration are presented in the following FIG. 2.

[4] = in vitro, NAADP having a high concentration

Q: What does the source list for “nicotinic acid adenine dinucleotide phosphate [NAADP]”?
A: concentration dependence of keratin 1 and keratin 10 increase in vivo ([1]; hairless mouse): increased by depending on the concentration of NAADP; concentration at which an increase in the expression level of the differentiation marker appeared ([1]; twice a day for one week): ≥ 100 nM; expression levels of keratin 1 and keratin 10 in outer skin versus control group ([1]; twice a day for one week, in PBS with 1% DMSO, FIG. 3): increased; intracellular calcium at high concentration of NAADP [2, 4]: increased; movement of intracellular calcium ([2]; treatment with 1 nM to 100 nM of NAADP, 5×10^5 cells, FIG. 1): induced; expression of differentiation markers (involucrin, keratin 1, keratin 10) ([3]; 10 pM to 10 μM of NAADP, low calcium concentration, cultured 5 days, FIG. 2): differentiation markers were expressed; effect on keratin 1 and keratin 10 relative to the other marker ([3]; 10 pM to 10 μM of NAADP, FIG. 2): better effects; expression of the markers at high concentration of NAADP [3, 4]: decreased
